Results on one molecule are retold here after patent publication US20240199555A1, “APPLICATIONS OF BIASED LIGANDS OF THE SEROTONIN 5-HT7 RECEPTOR FOR THE TREATMENT OF PAIN, MULTIPLE SCLEROSIS AND THE CONTROL OF THERMOREGULATION” (Centre National de la Recherche Scientifique, priority 2021, published 2024).

Like-named read-outs stand apart in the source and are kept apart here.

Test [1] addresses human 5-HT7a receptor (Homo sapiens (Human), UniProt P34969). Description: Radioligand binding competition, filtration binding assay, 5-HT7a. The settings on record: affinity on 5-HT7 receptor, table of new compounds.
Test [2] has as its target human 5-HT1A receptor (Homo sapiens (Human), UniProt P08908). Description: Radioligand binding competition, 5-HT1A. Particulars: selectivity panel.
The target of test [3] is h5-HT7R (Homo sapiens (Human), UniProt P34969). Description: cAMP accumulation (LANCE cAMP detection kit) in HEK-293 cells stably expressing h5-HT7R. The format is cell-based. As to the method: (B) HEK-293 cells stably expressing h5-HT7R were stimulated with 10 nM of 5-CT and increasing concentrations of products for one hour. After cell lysis, cAMP production was quantified by a LANCE cAMP detection kit (Perkin Elmer). […] Data points represent the means±SEM from three independent experiments performed in triplicate. The EC50 and IC50 for each drug was determined using GraphPad Prism software.
h5-HT7R, sequence (P34969 1-432): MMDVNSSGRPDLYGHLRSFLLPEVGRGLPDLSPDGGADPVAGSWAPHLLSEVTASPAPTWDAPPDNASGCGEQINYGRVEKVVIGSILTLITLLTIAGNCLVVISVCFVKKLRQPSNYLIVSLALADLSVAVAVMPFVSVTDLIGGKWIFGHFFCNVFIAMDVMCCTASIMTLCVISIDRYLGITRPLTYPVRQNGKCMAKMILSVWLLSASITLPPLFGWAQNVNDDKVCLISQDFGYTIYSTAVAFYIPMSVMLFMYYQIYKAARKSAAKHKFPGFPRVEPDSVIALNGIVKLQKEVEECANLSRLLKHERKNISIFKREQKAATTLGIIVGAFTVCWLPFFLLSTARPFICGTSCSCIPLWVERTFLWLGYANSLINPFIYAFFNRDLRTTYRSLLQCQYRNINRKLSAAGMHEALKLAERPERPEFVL
cAMP accumulation was measured with a LANCE™ cAMP detection kit (Perkin-Elmer Life Sciences, Boston, MA, USA). 12 h before experiment cells were starved. Forty-eight h after transfection, cells were harvested in Hank's balanced salt solution (HBSS) containing 5 mM HEPES, 1 mM isobutylmethylxanthine (IBMX) and 0.1% BSA, PH 7.4. After centrifugation (1000×g, 5 min), cells were resuspended in the same buffer (2×10^6 per ml). The ALEXA™ fluor 647 anti-cAMP antibody solution (1 μl) was added to the cell suspension (100 μl) and 5 μl aliquots of the mixture were dispensed in white 384-well microtiter plates (Optiplate, Perkin Elmer). The cells were then stimulated with different drugs. After 1 h incubation at room temperature in the dark, lysis buffer (0.35% Triton X-100, 10 mM CaCl2, 50 mM HEPES) containing LANCE EU-W8044 labeled streptavidin and biotinylated-cAMP was added to the cells (10 μL per well). After 2 h incubation at room temperature in the dark, the plates were read on a VictorV™ microplate reader (Perkin-Elmer Life Sciences). Concentration/response curves were analyzed using Prism 4 software.
HEK-293 fibroblast stably expressing 5-HT7 receptor were used to compare the effect of different 5-HT7R ligands on the classical Gαs-mediated activation of AC pathway. It was decided to evaluate the lead compounds from two series of ligands, Serodolin and MOA-51 (FIG. 1A).
Background: cAMP levels reflect the balance of adenylyl cyclase and phosphodiesterase activity.

In test [4] the test system is mice. Description: Acetic acid-induced writhing test. The format is in vivo. The method, then:
(§1) FIG. 9: Analgesic effect of Serodolin in the acetic acid-induced writhing test. In this test, nociception was induced by an intraperitoneally injection (ip) of 0.1 ml/10 g acid acetic solution (10 ml/kg) in peripheral origin. Serodolin at increasing dosage was administrated by oral (po), intravenous (iv) or subcutaneous (sc) route before acid acetic injection (upper panel). Positive control animals were pretreated morphine (3 mg/kg, sc) 10 minutes before acetic acid. Five minutes after i.p. injection of acetic acid the number of writhing was recorded for 10 minutes. Data mean±SEM of values obtained from a representative experiment (n=10 animals/group). ****p<0.0001 ***p<0.001 **p<0.01 *p<0.05 as compared with the control group (Vh).
as §1, with “16:” for “9:”, “MOA51” for “Serodolin”, “i.p.injection” for “i.p. injection”, “animals/group).” for “animals/group). ****p<0.0001 ***p<0.001”, “**p<0.01” for “**p<0.01 *p<0.05”
Writhing tests: Mice (25-35 g). Groups of mice (n=10) received by oral, subcutaneous or intravenous route Serodolin at different doses (0.1-10 mg/kg) one hour before intraperitoneally injection of 1% acetic acid in a volume of 10 ml/kg. Control group received vehicle (10 ml/kg, solution of 20% DMSO and 5% tween 80). The test was carried out 5 minutes later after acid acetic injection. The characteristic writhing responses have been observed individually and counted for 10 minutes.
Analgesic activity was first evaluated using the acetic acid abdominal constriction test (writhing test), a chemical model of visceral pain. We evaluated the dose-response effect of Serodolin following single oral, intravenous and subcutaneous administration of the compound one hour before injection of acetic acid.
Analgesic activity was evaluated using the acetic acid abdominal constriction test (writhing test), a chemical model of visceral pain. We evaluated the dose-response effect of MOA51 following single oral, intravenous and subcutaneous administration of the compound one hour before injection of acetic acid. MOA51 administered by the oral route induced statistically significant dose-dependent decreases in the number of writhings at and above the dose of 1 mg/kg. By the intravenous route, MOA51 induced dose-dependent decreases in the number of writhings at and above the dose of 0.1 mg/kg.

human 5-HT1A receptor, sequence (P08908 whole entry): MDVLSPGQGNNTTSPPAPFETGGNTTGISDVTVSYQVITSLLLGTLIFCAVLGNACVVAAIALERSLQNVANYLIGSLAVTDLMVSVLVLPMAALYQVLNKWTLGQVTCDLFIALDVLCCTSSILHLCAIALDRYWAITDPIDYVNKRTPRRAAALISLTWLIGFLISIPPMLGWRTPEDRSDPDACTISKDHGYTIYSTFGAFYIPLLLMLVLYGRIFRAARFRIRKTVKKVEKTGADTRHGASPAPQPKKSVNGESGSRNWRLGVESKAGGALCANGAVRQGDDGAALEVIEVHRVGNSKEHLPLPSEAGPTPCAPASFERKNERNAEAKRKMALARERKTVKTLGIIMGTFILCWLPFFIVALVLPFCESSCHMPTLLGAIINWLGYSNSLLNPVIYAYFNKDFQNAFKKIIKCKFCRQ
human 5-HT7a receptor, sequence (P34969 other isoform, or with tags, fused parts or gaps): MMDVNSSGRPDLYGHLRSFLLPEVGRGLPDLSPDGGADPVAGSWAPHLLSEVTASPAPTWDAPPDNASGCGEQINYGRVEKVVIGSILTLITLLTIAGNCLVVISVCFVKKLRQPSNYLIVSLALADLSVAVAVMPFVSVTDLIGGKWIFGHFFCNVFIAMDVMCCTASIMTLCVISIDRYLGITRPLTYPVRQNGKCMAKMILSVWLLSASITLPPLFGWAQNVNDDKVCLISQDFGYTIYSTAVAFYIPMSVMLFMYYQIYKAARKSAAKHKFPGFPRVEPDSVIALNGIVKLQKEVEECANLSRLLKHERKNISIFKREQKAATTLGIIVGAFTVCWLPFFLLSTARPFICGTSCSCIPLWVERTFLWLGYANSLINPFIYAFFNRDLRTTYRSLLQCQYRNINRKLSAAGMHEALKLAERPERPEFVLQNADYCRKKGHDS

On to `O=c1[nH]c2ccccc2n1CN1CCN(c2ccc(F)cc2)CC1` [Serodolin], for which the IC50 in test [1] worked out at 1.14 nM; in test [2] (read-out: RLB 5-HT1A IC50), 203 nM; in test [3] (10 nM of 5-CT, one hour, read-out: IC50, decrease of the 5-CT induced cAMP accumulation (antagonist)), 5 ± 2 nM; in test [3] (tested alone, read-out: IC50, inverse agonist effect on cAMP response), 14 nM. The inhibitory constant (Ki) turned out to be 0.8 nM in test [1] and 102 nM in test [2] (read-out: RLB 5-HT1A Ki). Further, the “inhibition of cAMP production when tested alone (inverse agonist effect)” value in test [3] (tested alone) is listed as “around 75%”. In addition, in test [4] (at the highest dosage), the “inhibition of the writhing assay response” value was “up to 87%”. For the same molecule, in test [4] (s.c., one hour before acetic acid), the “dose giving significant decrease in number of writhings, subcutaneous route” value turned out to be 0.1 mg/kg.

Broadly, the IC50 is the concentration at which inhibition is half-maximal. By Ki is commonly meant a dissociation constant, usually derived from enzyme kinetics or from competition with a known ligand.
